pIC50: −log10 of the molar value. Counter-ions that a name gives are not always drawn.
What was measured:
[1] = target: T1, ATP-binding cassette sub-family C member 4 (Homo sapiens, UniProt O15439); assay: Inhibition of human MRP4 overexpressed in Sf9 cell membrane vesicles assessed as uptake of [3H]-estradiol-17beta-D-glucuronide in presence of ATP and GSH measured after 20 mins by membrane vesicle transport assay; format: ADME, cell-based
T1 sequence (O15439 whole entry): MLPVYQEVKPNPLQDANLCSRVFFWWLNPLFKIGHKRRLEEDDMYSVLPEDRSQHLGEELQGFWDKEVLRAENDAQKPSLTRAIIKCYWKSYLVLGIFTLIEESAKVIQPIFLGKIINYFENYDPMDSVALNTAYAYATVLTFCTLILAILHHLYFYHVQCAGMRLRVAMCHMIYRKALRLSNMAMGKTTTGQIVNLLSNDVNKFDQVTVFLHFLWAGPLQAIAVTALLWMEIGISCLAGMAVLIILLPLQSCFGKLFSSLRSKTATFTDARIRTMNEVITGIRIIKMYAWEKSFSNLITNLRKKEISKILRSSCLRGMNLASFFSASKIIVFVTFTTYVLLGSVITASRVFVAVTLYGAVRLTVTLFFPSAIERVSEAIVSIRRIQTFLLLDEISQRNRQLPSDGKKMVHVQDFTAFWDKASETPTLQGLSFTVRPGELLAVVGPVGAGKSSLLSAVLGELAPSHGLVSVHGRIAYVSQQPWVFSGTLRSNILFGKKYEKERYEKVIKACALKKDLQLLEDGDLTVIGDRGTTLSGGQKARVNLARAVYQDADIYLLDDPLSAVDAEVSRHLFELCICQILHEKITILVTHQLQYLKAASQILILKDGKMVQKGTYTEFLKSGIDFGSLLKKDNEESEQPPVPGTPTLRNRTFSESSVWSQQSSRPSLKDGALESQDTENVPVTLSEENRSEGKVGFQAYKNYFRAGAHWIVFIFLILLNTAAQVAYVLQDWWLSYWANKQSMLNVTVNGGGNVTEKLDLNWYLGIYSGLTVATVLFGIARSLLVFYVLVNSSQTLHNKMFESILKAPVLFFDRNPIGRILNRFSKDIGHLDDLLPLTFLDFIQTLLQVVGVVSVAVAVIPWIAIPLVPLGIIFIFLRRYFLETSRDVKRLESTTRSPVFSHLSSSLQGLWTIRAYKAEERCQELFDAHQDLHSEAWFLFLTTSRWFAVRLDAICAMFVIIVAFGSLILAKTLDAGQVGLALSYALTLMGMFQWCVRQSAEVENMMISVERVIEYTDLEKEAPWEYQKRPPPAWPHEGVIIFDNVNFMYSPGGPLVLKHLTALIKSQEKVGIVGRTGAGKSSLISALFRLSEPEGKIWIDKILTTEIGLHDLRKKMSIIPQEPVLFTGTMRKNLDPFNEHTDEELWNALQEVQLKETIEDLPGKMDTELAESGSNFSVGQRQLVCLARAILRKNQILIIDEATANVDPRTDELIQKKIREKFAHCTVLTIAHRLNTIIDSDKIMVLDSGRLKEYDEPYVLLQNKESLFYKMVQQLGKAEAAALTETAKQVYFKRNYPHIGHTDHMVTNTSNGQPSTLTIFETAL

Bile salt export pump = Bile salt export pump (Homo sapiens, UniProt O95342); assay: Inhibition of human BSEP overexpressed in Sf9 cell membrane vesicles assessed as uptake of [3H]-taurocholate in presence of ATP measured after 15 to 20 mins by membrane vesicle transport assay; format: ADME, cell-based
[2] = target: ATP-binding cassette sub-family C member 3 (Homo sapiens, UniProt O15438); assay: Inhibition of human MRP3 overexpressed in Sf9 insect cell membrane vesicles assessed as uptake of [3H]-estradiol-17beta-D-glucuronide in presence of ATP and GSH measured after 10 mins by membrane vesicle transport assay; format: ADME, cell-based
[3] = target: ATP-binding cassette sub-family C member 2 (Homo sapiens, UniProt Q92887); assay: Inhibition of human MRP2 overexpressed in Sf9 cell membrane vesicles assessed as uptake of [3H]-estradiol-17beta-D-glucuronide in presence of ATP and GSH measured after 20 mins by membrane vesicle transport assay
Sequence of ATP-binding cassette sub-family C member 2 (Q92887 whole entry): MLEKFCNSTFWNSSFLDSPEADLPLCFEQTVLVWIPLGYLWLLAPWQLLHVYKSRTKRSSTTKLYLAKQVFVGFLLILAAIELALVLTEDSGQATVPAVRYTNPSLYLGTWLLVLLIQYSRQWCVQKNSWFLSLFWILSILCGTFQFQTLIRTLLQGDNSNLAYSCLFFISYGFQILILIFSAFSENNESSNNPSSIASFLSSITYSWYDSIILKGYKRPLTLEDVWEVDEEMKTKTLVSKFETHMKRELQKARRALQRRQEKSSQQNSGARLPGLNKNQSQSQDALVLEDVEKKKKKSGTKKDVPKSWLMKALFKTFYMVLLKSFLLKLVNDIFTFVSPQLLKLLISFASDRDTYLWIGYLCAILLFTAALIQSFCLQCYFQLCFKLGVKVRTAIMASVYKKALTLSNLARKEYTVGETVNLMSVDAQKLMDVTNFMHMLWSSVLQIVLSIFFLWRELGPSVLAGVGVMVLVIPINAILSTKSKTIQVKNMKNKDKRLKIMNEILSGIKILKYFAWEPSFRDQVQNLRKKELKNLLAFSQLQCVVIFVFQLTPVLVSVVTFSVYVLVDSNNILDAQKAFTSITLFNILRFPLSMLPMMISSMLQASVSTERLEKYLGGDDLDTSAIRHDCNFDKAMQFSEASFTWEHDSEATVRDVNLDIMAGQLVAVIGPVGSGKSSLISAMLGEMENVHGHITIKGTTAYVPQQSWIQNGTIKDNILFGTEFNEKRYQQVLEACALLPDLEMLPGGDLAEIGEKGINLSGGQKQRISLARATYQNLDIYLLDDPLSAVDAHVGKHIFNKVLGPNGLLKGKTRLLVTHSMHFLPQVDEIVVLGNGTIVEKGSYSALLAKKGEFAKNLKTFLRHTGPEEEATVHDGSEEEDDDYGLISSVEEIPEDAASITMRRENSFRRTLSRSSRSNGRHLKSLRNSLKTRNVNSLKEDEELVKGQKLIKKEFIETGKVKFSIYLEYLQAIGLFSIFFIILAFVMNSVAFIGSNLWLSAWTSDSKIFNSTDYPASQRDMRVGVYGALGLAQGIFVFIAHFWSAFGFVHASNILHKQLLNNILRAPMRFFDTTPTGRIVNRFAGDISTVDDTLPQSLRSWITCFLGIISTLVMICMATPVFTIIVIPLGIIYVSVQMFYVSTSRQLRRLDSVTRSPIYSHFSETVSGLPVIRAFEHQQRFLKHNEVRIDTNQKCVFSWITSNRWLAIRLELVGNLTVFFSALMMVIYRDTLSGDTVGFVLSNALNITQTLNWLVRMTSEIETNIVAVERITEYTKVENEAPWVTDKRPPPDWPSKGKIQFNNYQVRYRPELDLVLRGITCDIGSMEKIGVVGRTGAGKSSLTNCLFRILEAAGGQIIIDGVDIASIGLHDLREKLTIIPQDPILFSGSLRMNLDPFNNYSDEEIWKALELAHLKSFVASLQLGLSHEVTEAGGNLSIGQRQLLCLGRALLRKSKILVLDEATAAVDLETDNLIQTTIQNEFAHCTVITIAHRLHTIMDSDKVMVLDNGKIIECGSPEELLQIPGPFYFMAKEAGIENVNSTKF

Sequence of Bile salt export pump (O95342 whole entry): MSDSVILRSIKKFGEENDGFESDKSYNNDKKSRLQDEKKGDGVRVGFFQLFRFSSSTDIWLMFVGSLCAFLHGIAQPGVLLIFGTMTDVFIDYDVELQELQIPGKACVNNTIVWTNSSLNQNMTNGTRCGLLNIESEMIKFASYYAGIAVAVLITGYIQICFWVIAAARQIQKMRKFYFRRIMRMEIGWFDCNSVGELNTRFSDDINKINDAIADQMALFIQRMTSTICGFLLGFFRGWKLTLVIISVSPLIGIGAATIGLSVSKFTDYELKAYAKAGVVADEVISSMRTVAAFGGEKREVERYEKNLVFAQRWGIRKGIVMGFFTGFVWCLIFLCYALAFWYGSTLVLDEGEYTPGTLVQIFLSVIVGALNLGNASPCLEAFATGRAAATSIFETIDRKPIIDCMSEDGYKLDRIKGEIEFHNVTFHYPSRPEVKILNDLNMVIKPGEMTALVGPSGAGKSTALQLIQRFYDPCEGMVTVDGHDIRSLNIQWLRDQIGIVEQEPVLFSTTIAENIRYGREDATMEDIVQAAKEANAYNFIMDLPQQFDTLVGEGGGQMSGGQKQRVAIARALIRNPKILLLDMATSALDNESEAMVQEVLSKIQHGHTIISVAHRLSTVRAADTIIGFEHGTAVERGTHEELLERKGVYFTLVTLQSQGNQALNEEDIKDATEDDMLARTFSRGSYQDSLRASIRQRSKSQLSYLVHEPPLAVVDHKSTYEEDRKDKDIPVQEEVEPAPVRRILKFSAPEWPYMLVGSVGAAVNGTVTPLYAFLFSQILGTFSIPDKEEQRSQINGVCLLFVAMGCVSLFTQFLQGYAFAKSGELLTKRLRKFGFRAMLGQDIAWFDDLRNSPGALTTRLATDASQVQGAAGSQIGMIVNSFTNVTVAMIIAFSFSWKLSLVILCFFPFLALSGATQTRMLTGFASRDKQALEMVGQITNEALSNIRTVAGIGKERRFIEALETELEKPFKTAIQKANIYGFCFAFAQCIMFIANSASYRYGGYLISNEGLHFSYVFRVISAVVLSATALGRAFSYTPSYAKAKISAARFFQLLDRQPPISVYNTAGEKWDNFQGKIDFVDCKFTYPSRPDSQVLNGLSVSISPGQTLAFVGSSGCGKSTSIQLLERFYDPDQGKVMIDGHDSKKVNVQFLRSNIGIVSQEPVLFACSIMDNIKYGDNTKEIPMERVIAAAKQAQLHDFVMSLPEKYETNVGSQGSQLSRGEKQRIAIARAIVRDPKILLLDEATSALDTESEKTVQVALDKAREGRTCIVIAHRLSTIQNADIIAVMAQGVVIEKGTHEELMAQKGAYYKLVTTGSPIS
Sequence of ATP-binding cassette sub-family C member 3 (O15438 whole entry): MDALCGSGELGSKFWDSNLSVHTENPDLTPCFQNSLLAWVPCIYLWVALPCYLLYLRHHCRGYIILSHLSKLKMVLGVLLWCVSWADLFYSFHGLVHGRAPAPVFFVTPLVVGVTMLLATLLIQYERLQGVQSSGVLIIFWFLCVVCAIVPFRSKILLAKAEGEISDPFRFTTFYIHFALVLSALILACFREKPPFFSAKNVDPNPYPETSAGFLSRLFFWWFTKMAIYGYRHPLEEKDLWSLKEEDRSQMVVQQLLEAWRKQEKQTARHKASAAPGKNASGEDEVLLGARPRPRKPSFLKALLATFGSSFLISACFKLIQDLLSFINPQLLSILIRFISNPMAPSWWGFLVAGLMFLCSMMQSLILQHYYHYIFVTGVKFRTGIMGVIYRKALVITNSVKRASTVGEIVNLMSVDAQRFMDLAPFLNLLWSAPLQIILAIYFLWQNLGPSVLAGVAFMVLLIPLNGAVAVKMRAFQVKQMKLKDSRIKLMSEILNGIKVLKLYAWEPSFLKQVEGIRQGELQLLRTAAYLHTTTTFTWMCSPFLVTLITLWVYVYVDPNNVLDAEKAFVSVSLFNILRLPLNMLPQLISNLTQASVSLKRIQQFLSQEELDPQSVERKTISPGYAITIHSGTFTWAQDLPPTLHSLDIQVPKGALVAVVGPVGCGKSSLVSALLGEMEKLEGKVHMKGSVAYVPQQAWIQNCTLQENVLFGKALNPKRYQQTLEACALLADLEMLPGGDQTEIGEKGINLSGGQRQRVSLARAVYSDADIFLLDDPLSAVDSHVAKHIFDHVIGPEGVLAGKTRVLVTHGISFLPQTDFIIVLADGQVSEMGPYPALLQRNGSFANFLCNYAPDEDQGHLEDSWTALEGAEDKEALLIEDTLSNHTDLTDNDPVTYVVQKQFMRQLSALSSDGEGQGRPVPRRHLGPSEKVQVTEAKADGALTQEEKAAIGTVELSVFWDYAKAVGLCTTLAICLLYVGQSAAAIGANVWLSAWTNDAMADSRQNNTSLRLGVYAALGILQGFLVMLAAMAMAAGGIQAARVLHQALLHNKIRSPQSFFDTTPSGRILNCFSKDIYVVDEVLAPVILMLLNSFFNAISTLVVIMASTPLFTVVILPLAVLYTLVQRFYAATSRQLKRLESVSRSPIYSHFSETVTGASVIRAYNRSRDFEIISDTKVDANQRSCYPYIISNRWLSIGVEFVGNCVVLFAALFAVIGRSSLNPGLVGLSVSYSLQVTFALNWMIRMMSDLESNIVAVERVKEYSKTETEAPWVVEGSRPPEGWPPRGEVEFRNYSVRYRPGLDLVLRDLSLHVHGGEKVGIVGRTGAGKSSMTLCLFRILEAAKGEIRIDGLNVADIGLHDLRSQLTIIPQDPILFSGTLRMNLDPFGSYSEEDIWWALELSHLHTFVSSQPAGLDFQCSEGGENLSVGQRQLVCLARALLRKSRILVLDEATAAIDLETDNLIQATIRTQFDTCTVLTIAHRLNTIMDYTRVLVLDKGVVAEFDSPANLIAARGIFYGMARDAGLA

| SMILES | pIC50 [1] | pIC50 (Bile salt export pump) | pIC50 [2] | pIC50 [3] |
| --- | --- | --- | --- | --- |
| CCCCCC[C@H]1C(=O)O[C@H](C)[C@H](NC(=O)c2cccc(NC=O)c2O)C(=O)O[C@@H](C)[C@@H]1OC(=O)CC(C)C [ANTIMYCIN A] | < 3.88 | 4.22 | < 3.88 | – |
| Nc1nnc(-c2cccc(Cl)c2Cl)c(N)n1 [LAMOTRIGINE] | – | < 3.88 | – | – |
| Nc1c(CC(=O)O)cccc1C(=O)c1ccc(Br)cc1 [BROMFENAC] | < 3.88 | < 3.88 | < 3.88 | – |
| COc1cccc([C@]2(O)CCCC[C@H]2CN(C)C)c1 | – | < 3.88 | – | – |
| C[C@@H](O)[C@H]1C(=O)N2C(C(=O)O)=C(SCCN=CN)C[C@H]12 | – | < 3.88 | – | – |
| COc1cc2nc(N(C)CCCNC(=O)C3CCCO3)nc(N)c2cc1OC (stereo unspecified) [ALFUZOSIN HYDROCHLORIDE] | – | < 3.88 | – | – |
| CN(C)[C@@H]1C(O)=C(C(N)=O)C(=O)[C@@]2(O)C(O)=C3C(=O)c4c(O)cccc4[C@@](C)(O)[C@H]3C[C@@H]12 [TETRACYCLINE] | < 3.88 | – | < 3.88 | < 3.88 |
| CN(C)CCC=C1c2ccccc2COc2ccccc21 [DOXEPIN] | < 3.88 | – | < 3.88 | < 3.88 |
| C[C@H](N[C@@H](CCc1ccccc1)C(=O)O)C(=O)N1CCC[C@H]1C(=O)O [ENALAPRILAT ANHYDROUS] | < 3.88 | – | < 3.88 | < 3.88 |
| CCN(CC)C(=S)SSC(=S)N(CC)CC | < 3.88 | – | < 3.88 | < 3.88 |
| COC[C@H]1OC(=O)c2coc3c2[C@@]1(C)C1=C(C3=O)[C@@H]2CCC(=O)[C@@]2(C)C[C@H]1OC(C)=O [WORTMANNIN] | 4.20 | – | < 3.88 | 4.34 |
| CN/C(=N/CCSCc1nc[nH]c1C)NC#N [CIMETIDINE] | < 3.88 | – | < 3.88 | < 3.88 |
| COCCCC/C(=N\OCCN)c1ccc(C(F)(F)F)cc1 [FLUVOXAMINE MALEATE] | < 3.88 | – | < 3.88 | < 3.88 |
| COCCCOc1cc(C[C@@H](C[C@H](N)[C@@H](O)C[C@H](C(=O)NCC(C)(C)C(N)=O)C(C)C)C(C)C)ccc1OC [ALISKIREN FUMARATE] | – | < 3.88 | – | – |
| C[C@@H](c1ncncc1F)[C@](O)(Cn1cncn1)c1ccc(F)cc1F [VORICONAZOLE] | < 3.88 | – | < 3.88 | < 3.88 |
| Cn1cc[nH]c1=S [METHIMAZOLE] | < 3.88 | – | < 3.88 | < 3.88 |
| OC(CCN1CCCC1)(c1ccccc1)C1CCCCC1 (stereo unspecified) [PROCYCLIDINE] | < 3.88 | – | < 3.88 | < 3.88 |
| CC1=C(C(=O)O)N2C(=O)[C@@H](NC(=O)[C@H](N)c3ccc(O)cc3)[C@H]2SC1 [CEFADROXIL] | < 3.88 | – | < 3.88 | < 3.88 |
| CN1[C@@H]2CC[C@H]1C[C@@H](OC(=O)C(CO)c1ccccc1)C2 (mixture of isomers) [ATROPINE] | < 3.88 | – | < 3.88 | < 3.88 |
| C#C[C@@]1(O)CC[C@H]2[C@@H]3CCC4=CC(=O)CC[C@@H]4[C@H]3CC[C@@]21C | < 3.88 | – | < 3.88 | < 3.88 |
| C[C@]12C=CC(=O)C=C1CC[C@@H]1[C@@H]2[C@@H](O)C[C@@]2(C)[C@H]1CC[C@]2(O)C(=O)CO [PREDNISOLONE] | < 3.88 | – | < 3.88 | < 3.88 |
| CC[C@H]1OC(=O)[C@H](C)[C@@H](O[C@H]2C[C@@](C)(OC)[C@@H](O)[C@H](C)O2)[C@H](C)[C@@H](O[C@@H]2O[C@H](C)C[C@H](N(C)C)[C@H]2O)[C@](C)(O)C[C@@H](C)C(=O)[C@H](C)[C@@H](O)[C@]1(C)O [ERYTHROMYCIN] | < 3.88 | – | < 3.88 | < 3.88 |
| O=C1CN(/N=C/c2ccc([N+](=O)[O-])o2)C(=O)N1 [NITROFURANTOIN] | 4.68 | – | < 3.88 | < 3.88 |

| SMILES | pIC50 [1] | pIC50 (Bile salt export pump) | pIC50 [2] | pIC50 [3] |
| --- | --- | --- | --- | --- |
| O=C1CCc2ccc(OCCCCN3CCN(c4cccc(Cl)c4Cl)CC3)cc2N1 [ARIPIPRAZOLE] | < 3.88 | – | < 3.88 | < 3.88 |
| CCN(CC)CC(=O)Nc1c(C)cccc1C [LIDOCAINE] | < 3.88 | – | < 3.88 | < 3.88 |
| N#C[C@@H]1C[C@@H]2C[C@@H]2N1C(=O)[C@@H](N)C12CC3CC(CC(O)(C3)C1)C2 [SAXAGLIPTIN HYDROCHLORIDE] | < 3.88 | – | < 3.88 | < 3.88 |
| COc1cc([C@@H]2c3cc4c(cc3[C@@H](O[C@@H]3O[C@@H]5CO[C@@H](C)O[C@H]5[C@H](O)[C@H]3O)[C@H]3COC(=O)[C@H]23)OCO4)cc(OC)c1O [ETOPOSIDE] | < 3.88 | – | < 3.88 | < 3.88 |
| CN(C)CCCN1c2ccccc2CCc2ccccc21 [IMIPRAMINE] | < 3.88 | – | < 3.88 | < 3.88 |
| CN[C@@H]1C[C@H]2O[C@@](C)([C@@H]1OC)n1c3ccccc3c3c4c(c5c6ccccc6n2c5c31)C(=O)NC4 [STAUROSPORINE] | 4.42 | – | < 3.88 | < 3.88 |
| CN(C)CCC(c1ccc(Br)cc1)c1ccccn1 (stereo unspecified) [BROMPHENIRAMINE MALEATE] | < 3.88 | – | < 3.88 | < 3.88 |
| Sc1ncnc2nc[nH]c12 [MERCAPTOPURINE ANHYDROUS] | – | < 3.88 | – | – |
| CC(C)(S)[C@@H](N)C(=O)O [PENICILLAMINE] | – | < 3.88 | – | – |
| CN(C)CC[C@@H](c1ccc(Br)cc1)c1ccccn1 [DEXBROMPHENIRAMINE MALEATE] | < 3.88 | – | < 3.88 | < 3.88 |
| O=C(O)[C@H]1/C(=C/CO)O[C@@H]2CC(=O)N21 [CLAVULANATE POTASSIUM] | – | < 3.88 | – | – |
| C=C(c1ccc(C(=O)O)cc1)c1cc2c(cc1C)C(C)(C)CCC2(C)C [BEXAROTENE] | < 3.88 | – | < 3.88 | < 3.88 |
| N#Cc1ccc(C(c2ccc(C#N)cc2)n2cncn2)cc1 [LETROZOLE] | – | < 3.88 | – | – |
| COc1c(O[C@@H]2O[C@H](CO)[C@@H](O)[C@H](O)[C@H]2O)cc2c(c1OC)-c1ccc(SC)c(=O)cc1[C@@H](NC(C)=O)CC2 [THIOCOLCHICOSIDE] | – | < 3.88 | – | – |
| OC[C@H]1O[C@@H](n2cnc3c2NC=NC[C@H]3O)C[C@@H]1O [PENTOSTATIN] | – | < 3.88 | – | – |
| CCN(CC)CCNC(=O)c1ccc(N)cc1 [PROCAINAMIDE] | < 3.88 | – | < 3.88 | < 3.88 |
| OCCOCCN1CCN(C2=Nc3ccccc3Sc3ccccc32)CC1 [QUETIAPINE FUMARATE] | < 3.88 | – | < 3.88 | < 3.88 |
| Cc1ncc([N+](=O)[O-])n1CCO [METRONIDAZOLE] | < 3.88 | – | < 3.88 | < 3.88 |
| C=C(CC)C(=O)c1ccc(OCC(=O)O)c(Cl)c1Cl [ETHACRYNIC ACID] | < 3.88 | – | 4.02 | 5.41 |
| Clc1ccc2c(c1)CCc1cccnc1C2=C1CCNCC1 [DESLORATADINE] | < 3.88 | – | < 3.88 | < 3.88 |
| CC(C)NCC(O)COc1cccc2ccccc12 (stereo unspecified) [PROPRANOLOL] | < 3.88 | – | < 3.88 | < 3.88 |
| CNCCC(Oc1ccc(C(F)(F)F)cc1)c1ccccc1 (stereo unspecified) [FLUOXETINE] | < 3.88 | – | < 3.88 | < 3.88 |
| CC/C(=C(\c1ccccc1)c1ccc(OCCN(C)C)cc1)c1ccccc1 [TAMOXIFEN] | < 3.88 | – | < 3.88 | < 3.88 |

— ChEMBL document CHEMBL4028801, “A multifactorial approach to hepatobiliary transporter assessment enables improved therapeutic compound development” (Toxicol Sci, 2013)
